Consider 18 molecules from patent US9839642B2, “Beta-tetrazolyl-propionic acids as metallo-beta-lactamase inhibitors” (priority 2014, dated 2017).

Assay [1] has as its system Serratia marcescens expressing IMP-1 (CL5741). The experiment in a line: Antibiotic potentiation activity: synergistic concentration (MITC95) with imipenem, growth by OD600. As to conditions: 95% inhibition of bacterial growth, strain CL5741. Format: cell-based. The method, boiled down:
(§1)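 Colonies from overnight agar plates (35 °C) were suspended in saline and diluted 1:100 into 1.1× CAMHB. Inhibitor (final 200 μM to 0.195 μM) was combined with imipenem at 1 or 4 μg/ml, incubated 22–24 h at 35 °C, and absorbance read; MITC95 is the lowest inhibitor concentration giving 95% growth inhibition.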

Assay [2] concerns Escherichia coli expressing NDM-1 (CLB30016). The description is as above. Format: cell-based. As to conditions: 95% inhibition of bacterial growth, strain CLB30016. An outline of the steps: as §1
Assay [3] relates to Klebsiella pneumoniae expressing VIM-1 (IHMA599644). Described as above. As to conditions: 95% inhibition of bacterial growth, strain IHMA599644. Format: cell-based. The method, boiled down:
as §1

Another assay deals with NDM-1 (Klebsiella pneumoniae, UniProt C7C422). The experiment in a line: Enzyme activity: determination of IC50, fluorescence assay with CCF2-FA substrate. Format: biochemical. The conditions noted are these: enzyme 1 pM, CCF2-FA 1.25 μM, 2 hours at 25° C.; read-out: NDM1 IC50. An outline of the steps: (§2)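 Final enzyme levels differed by target: 1 pM NDM-1, 2 pM IMP-1, 30 pM VIM-1. Each was incubated 2 hours at 25° C with test compound and 1.25 μM CCF2-FA, and 460 nm fluorescence (405 nm excitation) was fitted by 4-parameter curve to obtain IC50.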

The target in another assay is IMP-1 (Serratia marcescens, UniProt P52699). The description is as above. Format: biochemical. The conditions noted are these: enzyme 2 pM, CCF2-FA 1.25 μM, 2 hours at 25° C.; read-out: IMP1 IC50. The method, boiled down: as §2
Another assay deals with VIM-1 (Pseudomonas aeruginosa, UniProt A0A0F7KYQ8). Described as above. Type of assay: biochemical. As to conditions: enzyme 30 pM, CCF2-FA 1.25 μM, 2 hours at 25° C.; read-out: VIM1 IC50. An outline of the steps: as §2

pIC50: −log10 of the molar value. Some results are limits rather than exact numbers.

NDM-1, sequence (C7C422 29-270, looked up, species assumed): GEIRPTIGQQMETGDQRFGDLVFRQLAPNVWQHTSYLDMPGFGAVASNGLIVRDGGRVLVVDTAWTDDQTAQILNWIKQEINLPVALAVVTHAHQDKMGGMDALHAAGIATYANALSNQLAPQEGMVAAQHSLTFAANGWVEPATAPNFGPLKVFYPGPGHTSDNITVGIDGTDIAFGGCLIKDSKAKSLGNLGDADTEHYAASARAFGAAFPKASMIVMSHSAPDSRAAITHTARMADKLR
IMP-1, sequence (P52699 19-246, looked up, species assumed): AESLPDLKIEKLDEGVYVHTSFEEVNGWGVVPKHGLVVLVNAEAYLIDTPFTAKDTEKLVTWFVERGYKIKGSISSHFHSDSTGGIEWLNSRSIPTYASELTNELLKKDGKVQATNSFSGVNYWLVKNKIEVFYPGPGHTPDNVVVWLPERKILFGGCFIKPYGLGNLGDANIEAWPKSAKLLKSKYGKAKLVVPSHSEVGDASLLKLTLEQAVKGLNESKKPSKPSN

Broadly, the pIC50 is the IC50 on a negative log10 scale, so that one unit is a factor of ten. For `CC(C)C[C@H](C(=O)O)[C@H](Cc1ccc(N)nc1)c1nnn[nH]1` [Example 112, 2-amino-5-((2S,3S)-3-carboxy-5-methyl-2-(2H-tetrazol-5-yl)hexyl)pyridin-1-ium 2,2,2-trifluoroacetate], the “IMP1 SM5741 MITC95” value in assay [1] came to 11 µM. The “NDM1 EC30016 MITC95” value in assay [2] worked out at 0.54 µM. Moreover, the “VIM1 KP599644 MITC95” value in assay [3] came to 5.5 µM. The figures for the pIC50 at NDM-1, on IMP-1 and at VIM-1 were 6.96, 6.24 and 8.31, respectively.
As for `CC(C)C[C@H](C(=O)O)[C@H](Cc1ccc(N)cn1)c1nnn[nH]1` [Example 113, 5-amino-2-((2S,3S)-3-carboxy-5-methyl-2-(2H-tetrazol-5-yl)hexyl)pyridin-1-ium 2,2,2-trifluoroacetate], the “IMP1 SM5741 MITC95” value in assay [1] was 18.8 µM. Also, the “NDM1 EC30016 MITC95” value in assay [2] turned out to be 0.78 µM. Further, the “VIM1 KP599644 MITC95” value in assay [3] worked out at 9.4 µM. In addition, the pIC50 on NDM-1 was 6.89; at IMP-1, 5.68; on VIM-1, 7.10.
Turning to `CCC[C@H](C(=O)O)[C@H](Cc1ccc(N)nc1)c1nnn[nH]1` [Example 114, (S)-2-((S)-2-(6-aminopyridin-3-yl)-1-(1H-tetrazol-5-yl)ethyl)pentanoic acid], in assay [1], the “IMP1 SM5741 MITC95” value came out at 18.8 µM. Also, the “NDM1 EC30016 MITC95” value in assay [2] worked out at 0.39 µM. Also, the “VIM1 KP599644 MITC95” value in assay [3] amounted to 2.3 µM. In addition, the values for the pIC50 on NDM-1, at IMP-1 and at VIM-1 were 6.74, 5.43 and 8.21, respectively.
For `CCC[C@H](C(=O)O)[C@H](Cc1cnc(N)s1)c1nnn[nH]1` [Example 115, (2S)-2-[(1S)-2-(2-amino-1,3-thiazol-5-yl)-1-(1H-tetrazol-5-yl)ethyl]pentanoic acid], the “IMP1 SM5741 MITC95” value in assay [1] was 25 µM. Also, the “NDM1 EC30016 MITC95” value in assay [2] came to 0.78 µM. For the same molecule, the “VIM1 KP599644 MITC95” value in assay [3] worked out at 9.4 µM. The pIC50 at NDM-1 is 6.77; on IMP-1 it was 5.82; on VIM-1, 8.19.
Regarding `CC(C)C[C@H](C(=O)O)[C@H](Cc1cnc(N)s1)c1nnn[nH]1` [Example 116, (2S)2-[(1S)-2-(2-amino-1,3-thiazol-5-yl)-1-(1H-tetrazol-5-yl)ethyl]-4-methylpentanoic acid], the “IMP1 SM5741 MITC95” value in assay [1] is 9.4 µM. Besides, the “NDM1 EC30016 MITC95” value in assay [2] turned out to be 3.1 µM. Also, in assay [3], the “VIM1 KP599644 MITC95” value worked out at 18.8 µM. Moreover, the results for the pIC50 on NDM-1, on IMP-1 and on VIM-1 were 6.85, 6.54 and 8.36, respectively.
In the case of `CCC[C@H](C(=O)O)[C@H](Cc1cccc(N)n1)c1nnn[nH]1` [Example 117, (2S)-2-[(1S)-2-(6-aminopyridin-2-yl)-1-(1H-tetrazol-5-yl)ethyl]pentanoic acid], the “IMP1 SM5741 MITC95” value in assay [1] is more than 200 µM. In assay [2], the “NDM1 EC30016 MITC95” value was found to be 1.6 µM. In assay [3], the “VIM1 KP599644 MITC95” value is 18.8 µM. The pIC50 was 5.89 on NDM-1, less than 4.70 on IMP-1 and 6.43 on VIM-1.
Turning to `CCC[C@H](C(=O)O)[C@H](Cc1ccnc(N)c1)c1nnn[nH]1` [Example 118, (2S)-2-[(1S)-2-(2-aminopyridin-4-yl)-1-(1H-tetrazol-5-yl)ethyl]pentanoic acid], in assay [1], the “IMP1 SM5741 MITC95” value is 200 µM. Besides, the “NDM1 EC30016 MITC95” value in assay [2] is 2.3 µM. Besides, the “VIM1 KP599644 MITC95” value in assay [3] turned out to be 6.2 µM. Moreover, the pIC50 on NDM-1 is 5.96; on IMP-1, less than 4.70; on VIM-1, 8.00.
`CC(C)C[C@H](C(=O)O)[C@H](Cc1ccc2ncc(N)cc2c1)c1nnn[nH]1` [Example 119, (S)-2-((S)-2-(3-aminoquinolin-6-yl)-1-(1H-tetrazol-5-yl)ethyl)-4-methylpentanoic acid]: the “IMP1 SM5741 MITC95” value in assay [1] was found to be 3.1 µM. Also, the “NDM1 EC30016 MITC95” value in assay [2] was found to be 9.4 µM. In addition, in assay [3], the “VIM1 KP599644 MITC95” value is 25 µM. Further, the pIC50 was 7.92 at NDM-1, 7.28 at IMP-1 and 9.00 at VIM-1.
As for `CC(C)[C@H](C(=O)O)[C@H](Cc1ccc(N)nc1)c1nnn[nH]1` [Example 121, (2S,3S)-4-(6-aminopyridin-3-yl)-2-isopropyl-3-(1H-tetrazol-5-yl)butanoic acid], the “IMP1 SM5741 MITC95” value in assay [1] was found to be 37 µM. In assay [2], the “NDM1 EC30016 MITC95” value amounted to 0.21 µM. In assay [3], the “VIM1 KP599644 MITC95” value stood at 5.5 µM. The pIC50 at NDM-1 is 6.92; at IMP-1, 5.22; on VIM-1, 7.46.
Regarding `Nc1ccc(C[C@H](c2nnn[nH]2)[C@@H](C(=O)O)C2CCCC2)cn1` [Example 122, (2S,3S)-4-(6-aminopyridin-3-yl)-2-cyclopentyl-3-(1H-tetrazol-5-yl)butanoic acid], the “IMP1 SM5741 MITC95” value in assay [1] worked out at 12.5 µM. Also, the “NDM1 EC30016 MITC95” value in assay [2] amounted to 0.39 µM. Moreover, in assay [3], the “VIM1 KP599644 MITC95” value was 6.2 µM. In addition, the pIC50 at NDM-1 was 7.41; at IMP-1, 6.21; at VIM-1, 8.85.
With `CC(C)(C)[C@H](C(=O)O)[C@H](Cc1ccc(N)nc1)c1nnn[nH]1` [Example 123, (2R,3S)-4-(6-aminopyridin-3-yl)-2-(tert-butyl)-3-(1H-tetrazol-5-yl)butanoic acid], in assay [1], the “IMP1 SM5741 MITC95” value was more than 200 µM. Moreover, the “NDM1 EC30016 MITC95” value in assay [2] worked out at 3.1 µM. Besides, in assay [3], the “VIM1 KP599644 MITC95” value was determined as 50 µM. For the same molecule, the figures for the pIC50 at NDM-1, at IMP-1 and on VIM-1 were 5.96, less than 4.70 and 6.23, respectively.
Take `CC(C)[C@H](C(=O)O)[C@H](Cc1ccc(N[C@@H]2CCNC2)nc1)c1nnn[nH]1` [Example 124, (2S,3S)-2-isopropyl-4-(6-((R)-pyrrolidin-3-ylamino)pyridin-3-yl)-3-(1H-tetrazol-5-yl)butanoic acid]: the “IMP1 SM5741 MITC95” value in assay [1] was 100 µM. In assay [2], the “NDM1 EC30016 MITC95” value amounted to 4.7 µM. In addition, the “VIM1 KP599644 MITC95” value in assay [3] worked out at 50 µM. The pIC50 at NDM-1 is 6.27; on IMP-1, 4.82; at VIM-1 it was 7.23.
For `CC(C)[C@H](C(=O)O)[C@H](Cc1ccc(N)cn1)c1nnn[nH]1` [Example 125, (2S,3S)-4-(5-aminopyridin-2-yl)-2-isopropyl-3-(1H-tetrazol-5-yl)butanoic acid], in assay [1], the “IMP1 SM5741 MITC95” value was found to be 75 µM. Further, in assay [2], the “NDM1 EC30016 MITC95” value amounted to 0.39 µM. Further, the “VIM1 KP599644 MITC95” value in assay [3] was found to be 12.5 µM. In addition, the pIC50 on NDM-1 was 6.77; on IMP-1, 4.92; at VIM-1, 6.62.
Regarding `CC(C)[C@H](C(=O)O)[C@H](Cc1ccc(N2CCC[C@H]2CO)nc1)c1nnn[nH]1` [Example 126, (2S,3S)-4-(6-((S)-2-(hydroxymethyl)pyrrolidin-1-yl)pyridin-3-yl)-2-isopropyl-3-(1H-tetrazol-5-yl)butanoic acid], the “IMP1 SM5741 MITC95” value in assay [1] amounted to 25 µM. Further, in assay [2], the “NDM1 EC30016 MITC95” value turned out to be 6.2 µM. Besides, the “VIM1 KP599644 MITC95” value in assay [3] was found to be 50 µM. Also, the pIC50 was 7.20 on NDM-1, 6.28 on IMP-1 and 7.47 at VIM-1.
Take `CC(C)[C@H](C(=O)O)[C@H](Cc1ccc(N2CCC[C@@H]2CO)nc1)c1nnn[nH]1` [Example 127, (2S,3S)-4-(6-((R)-2-(hydroxymethyl)pyrrolidin-1-yl)pyridin-3-yl)-2-isopropyl-3-(1H-tetrazol-5-yl)butanoic acid]: the “IMP1 SM5741 MITC95” value in assay [1] was 200 µM. Also, the “NDM1 EC30016 MITC95” value in assay [2] came to 12.5 µM. Besides, the “VIM1 KP599644 MITC95” value in assay [3] came out at 200 µM. Moreover, the pIC50 on NDM-1 is 6.49; on IMP-1 it was 5.00; at VIM-1 it was 6.55.
As to `CC(C)[C@H](C(=O)O)[C@H](Cc1cnc(N)nc1)c1nnn[nH]1` [Example 128, (2S,3S)-4-(2-aminopyrimidin-5-yl)-2-isopropyl-3-(1H-tetrazol-5-yl)butanoic acid], the “IMP1 SM5741 MITC95” value in assay [1] is more than 200 µM. Moreover, the “NDM1 EC30016 MITC95” value in assay [2] is 9.4 µM. The “VIM1 KP599644 MITC95” value in assay [3] was determined as 50 µM. The pIC50 on NDM-1 is 6.82; at IMP-1, 4.80; on VIM-1, 7.29.
Consider `CCC[C@H](C(=O)O)[C@H](Cc1ccc(NCCO)nc1)c1nnn[nH]1` [Example 129, (S)-2-((S)-2-(6-((2-hydroxyethyl)amino)pyridin-3-yl)-1-(1H-tetrazol-5-yl)ethyl)pentanoic acid], for which, in assay [1], the “IMP1 SM5741 MITC95” value amounted to 9.4 µM. Further, the “NDM1 EC30016 MITC95” value in assay [2] was found to be 0.39 µM. Besides, the “VIM1 KP599644 MITC95” value in assay [3] is 9.4 µM. Also, the pIC50 on NDM-1 is 7.11; on IMP-1, 6.08; on VIM-1 it was 8.25.
With `CCC[C@H](C(=O)O)[C@H](Cc1ccc(OCCN)nc1)c1nnn[nH]1` [Example 130, (S)-2-((S)-2-(6-(2-aminoethoxy)pyridin-3-yl)-1-(1H-tetrazol-5-yl)ethyl)pentanoic acid], the “IMP1 SM5741 MITC95” value in assay [1] amounted to 50 µM. The “NDM1 EC30016 MITC95” value in assay [2] was determined as 4.7 µM. Also, the “VIM1 KP599644 MITC95” value in assay [3] worked out at 18.8 µM. Also, the pIC50 on NDM-1 was 6.05; at IMP-1, 5.08; on VIM-1, 8.08.
